In patent US11053239B2, “Compounds as BLC-2-selective apoptosis-inducing agents” (Fochon Pharmaceuticals, Ltd., priority 2017, dated 2021):
pIC50: −log10 of the molar value. Read-outs that look alike come from different tables or passages of the source.

Tests used:
RS4; 11 cells = assay: Cell proliferation assay (MTS), RS4; 11 cells; format: cell-based; conditions: RS4, 11 (ATCC CRL-1873) cell proliferation, 30000 cells/well, 72 h, MTS, mechanism-based readout of Bcl-2 inhibition, read-out: RS4, 11 IC50
How it was run: (§1)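 RS4;11 (30000 cells/well, 72 h) and DOHH2 (5000 cells/well, 120 h) cells in RPMI-1640/10% FBS, treated at 37 °C with compound at 1.5–10000 nM final. Viability by MTS (2 h, SDS stop), absorbance 490 nm minus 650 nm reference; IC50 fitted.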

DOHH2 cells = assay: Cell proliferation assay (MTS), DOHH2 cells; format: cell-based; conditions: DOHH2 (DSMZ ACC 47) cell proliferation, 5000 cells/well, 120 h, MTS, mechanism-based readout of Bcl-2 inhibition, read-out: DOHH2 IC50
How it was run: as §1

Row | pIC50 (RS4; 11 cells; Homo sapiens, RS4-11, 72 h) | Compound | pIC50 (DOHH2 cells; Homo sapiens, DOHH-2, 120 h) | pIC50 (RS4; 11 cells) | pIC50 (DOHH2 cells)
1 | 7.62 | CC(C)C(=O)N=S1(=O)CCN(CCNc2ccc(S(=O)(=O)NC(=O)c3ccc(N4CCN(CC5=C(c6ccc(Cl)cc6)CC(C)(C)CC5)CC4)cc3Oc3cnc4[nH]ccc4c3)cc2[N+](=O)[O-])CC1 [Example 68, 2-((1H-pyrrolo[2,3-b]pyridin-5-yl)oxy)-4-(4-((4′-chloro-5,5-dimethyl-3,4,5,6-tetrahydro-[1,1′-biphenyl]-2-yl)methyl)piperazin-1-yl)-N-((4-((2-(1-(isobutyrylimino)-1-oxido-1λ^6-thiomorpholino)ethyl)amino)-3-nitrophenyl)sulfonyl) benzamide] | 6.66 |  | 
2 | 7.96 | CCC(=O)N=S1(=O)CCN(C[C@H](C)Nc2ccc(S(=O)(=O)NC(=O)c3ccc(N4CCN(CC5=C(c6ccc(Cl)cc6)CC(C)(C)CC5)CC4)cc3Oc3cnc4[nH]ccc4c3)cc2[N+](=O)[O-])CC1 [Example 65, (S)-2-((1H-pyrrolo[2,3-b]pyridin-5-yl)oxy)-4-(4-((4′-chloro-5,5-dimethyl-3,4,5,6-tetrahydro-[1,1′-biphenyl]-2-yl)methyl)piperazin-1-yl)-N-((3-nitro-4-((l-(1-oxido-1-(propionylimino)-1λ^6-thiomorpholino)propan-2-yl)amino)phenyl)sulfonyl) benzamide] | 7.51 |  | 
3 | 7.96 | CC(C)C(=O)N=S1(=O)CCN(C[C@H](C)Nc2ccc(S(=O)(=O)NC(=O)c3ccc(N4CCN(CC5=C(c6ccc(Cl)cc6)CC(C)(C)CC5)CC4)cc3Oc3cnc4[nH]ccc4c3)cc2[N+](=O)[O-])CC1 [Example 66, (S)-2-((1H-pyrrolo[2,3-b]pyridin-5-yl)oxy)-4-(4-((4′-chloro-5,5-dimethyl-3,4,5,6-tetrahydro-[1,1′-biphenyl]-2-yl)methyl)piperazin-1-yl)-N-((4-((1-(1-(isobutyrylimino)-1-oxido-1λ^6-thiomorpholino)propan-2-yl)amino)-3-nitrophenyl)sulfonyl) benzamide] | 7.64 |  | 
4 | 7.49 | CCC(=O)N=S1(=O)CCN(CCNc2ccc(S(=O)(=O)NC(=O)c3ccc(N4CCN(CC5=C(c6ccc(Cl)cc6)CC(C)(C)CC5)CC4)cc3Oc3cnc4[nH]ccc4c3)cc2[N+](=O)[O-])CC1 [Example 67, 2-((1H-pyrrolo[2,3-b]pyridin-5-yl)oxy)-4-(4-((4′-chloro-5,5-dimethyl-3,4,5,6-tetrahydro-[1,1′-biphenyl]-2-yl)methyl)piperazin-1-yl)-N-((3-nitro-4-((2-(1-oxido-1-(propionylimino)-1λ^6-thiomorpholino)ethyl)amino)phenyl)sulfonyl)benzamide] | 6.86 |  | 
5 | 7.68 | COC(=O)N=S1(=O)CCN(C[C@H](C)Nc2ccc(S(=O)(=O)NC(=O)c3ccc(N4CCN(CC5=C(c6ccc(Cl)cc6)CC(C)(C)CC5)CC4)cc3Oc3cnc4[nH]ccc4c3)cc2[N+](=O)[O-])CC1 [Example 44, methyl (S)-(4-(2-((4-(N-(2-((1H-pyrrolo[2,3-b]pyridin-5-yl)oxy)-4-(4-((4′-chloro-5,5-dimethyl-3,4,5,6-tetrahydro-[1,1′-biphenyl]-2-yl)methyl)piperazin-1-yl)benzoyl)sulfamoyl)-2-nitrophenyl)amino)propyl)-1-oxido-1λ^6-thiomorpholin-1-ylidene) carbamate] | 7.70 |  | 

Further lines, the compound ahead of its results:

Row | Compound | pIC50 (RS4; 11 cells; Homo sapiens, RS4-11, 72 h) | pIC50 (DOHH2 cells; Homo sapiens, DOHH-2, 120 h) | pIC50 (RS4; 11 cells) | pIC50 (DOHH2 cells)
6 | 2-((1H-pyrrolo[2,3-b] pyridin-5-yl)oxy)-4-(4-((4′- chloro-5,5-dimethyl-3,4,5,6- tetrahydro-[1,1′-biphenyl]-2-yl) methyl)piperazin-1-yl)- N-((4-((2-(4-((dimethyl(oxo)-λ^6- sulfanylidene) amino)piperidin-1-yl)ethyl) amino)-3-nitrophenyl)sulfonyl) benzamide [Example 98] |  |  | 8.70 | 6.75
7 | CC1(C)CCC(CN2CCN(c3ccc(C(=O)NS(=O)(=O)c4cnc(NCC5CCC(N=S(C)(C)=O)CC5)c([N+](=O)[O-])c4)c(Oc4cnc5[nH]ccc5c4)c3)CC2)=C(c2ccc(Cl)cc2)C1 (stereo not shown) [Example 52, 2-((1H-pyrrolo[2,3-b]pyridin-5-yl)oxy)-4-(4-((4′-chloro-5,5-dimethyl-3,4,5,6-tetrahydro-[1,1′-biphenyl]-2-yl)methyl)piperazin-1-yl)-N-((6-(((4-((dimethyl(oxo)-λ^6-sulfanylidene)amino)cyclohexyl)methyl)amino)-5-nitropyridin-3-yl)sulfonyl) benzamide] | 8.70 | 7.54 |  | 
8 | CC(C)C(=O)N=S1(=O)CCN(CC[C@H](C)Nc2ccc(S(=O)(=O)NC(=O)c3ccc(N4CCN(CC5=C(c6ccc(Cl)cc6)CC(C)(C)CC5)CC4)cc3Oc3cnc4[nH]ccc4c3)cc2S(=O)(=O)C(F)(F)F)CC1 [Example 90, (S)-2-((1H-pyrrolo[2,3-b]pyridin-5-yl)oxy)-4-(4-((4′-chloro-5,5-dimethyl-3,4,5,6-tetrahydro-[1,1′-biphenyl]-2-yl)methyl)piperazin-1-yl)-N-((4-((4-(1-(isobutyrylimino)-1-oxido-1λ^6-thiomorpholino)butan-2-yl)amino)-3-((trifluoromethyl)sulfonyl)phenyl)sulfonyl) benzamide] | 6.94 | 6.65 |  | 
9 | CC(=O)N=S1(=O)CCN(CC[C@H](C)Nc2ccc(S(=O)(=O)NC(=O)c3ccc(N4CCN(CC5=C(c6ccc(Cl)cc6)CC(C)(C)CC5)CC4)cc3Oc3cnc4[nH]ccc4c3)cc2S(=O)(=O)C(F)(F)F)CC1 [Example 89, (S)-2-((1H-pyrrolo[2,3-b]pyridin-5-yl)oxy)-N-((4-((4-(1-(acetylimino)-1-oxido-1λ^6-thiomorpholino)butan-2-yl)amino)-3-((trifluoromethyl)sulfonyl)phenyl)sulfonyl)-4-(4-((4′-chloro-5,5-dimethyl-3,4,5,6-tetrahydro-[1,1′-biphenyl]-2-yl)methyl)piperazin-1-yl)benzamide] | 7.28 | 6.95 |  | 
10 | CC1(C)CCC(CN2CCN(c3ccc(C(=O)NS(=O)(=O)c4ccc(NCC5CCC(N=S6(=O)CCOCC6)CC5)c([N+](=O)[O-])c4)c(Oc4cnc5[nH]ccc5c4)c3)CC2)=C(c2ccc(Cl)cc2)C1 (stereo not shown) [Example 54, 2-((1H-pyrrolo[2,3-b]pyridin-5-yl)oxy)-4-(4-((4′-chloro-5,5-dimethyl-3,4,5,6-tetrahydro-[1,1′-biphenyl]-2-yl)methyl)piperazin-1-yl)-N-((3-nitro-4-(((4-((4-oxido-1,4λ^6-oxathian-4-ylidene)amino)cyclohexyl)methyl)amino)phenyl)sulfonyl) benzamide] | 8.40 | 8.05 |  | 
11 | C[C@@H](CCN1CCS(=O)(=NC2CC2)CC1)Nc1ccc(S(=O)(=O)NC(=O)c2ccc(N3CCN(CC4=C(c5ccc(Cl)cc5)CC(C)(C)CC4)CC3)cc2Oc2cnc3[nH]ccc3c2)cc1S(=O)(=O)C(F)(F)F [Example 88, (S)-2-((1H-pyrrolo[2,3-b]pyridin-5-yl)oxy)-4-(4-((4′-chloro-5,5-dimethyl-3,4,5,6-tetrahydro-[1,1′-biphenyl]-2-yl)methyl)piperazin-1-yl)-N-((4-((4-(1-(cyclopropylimino)-1-oxido-1λ^6-thiomorpholino)butan-2-yl)amino)-3-((trifluoromethyl)sulfonyl)phenyl)sulfonyl)benzamide] | 6.73 | 6.33 |  | 
12 | (S)-2-((1H-pyrrolo[2,3-b] pyridin-5-yl)oxy)-4-(4-((4′- chloro-5,5-dimethyl- 3,4,5,6-tetrahydro-[1,1′- biphenyl]-2-yl)methyl) piperazin-1-yl)-N-((4-((1-(4- ((dimethyl(oxo)-λ^6- sulfanylidene)amino) piperidin-1-yl)propan-2-yl) amino)-3-nitrophenyl)sulfonyl) benzamide [Example 97] |  |  | 9.00 | 6.49
13 | C[C@@H](CCN1CCS(=O)(=NC(=O)C2CC2)CC1)Nc1ccc(S(=O)(=O)NC(=O)c2ccc(N3CCN(CC4=C(c5ccc(Cl)cc5)CC(C)(C)CC4)CC3)cc2Oc2cnc3[nH]ccc3c2)cc1S(=O)(=O)C(F)(F)F [Example 91, (S)-2-((1H-pyrrolo[2,3-b]pyridin-5-yl)oxy)-4-(4-((4′-chloro-5,5-dimethyl-3,4,5,6-tetrahydro-[1,1′-biphenyl]-2-yl)methyl)piperazin-1-yl)-N-((4-((4-(1-((cyclopropanecarbonyl)imino)-1-oxido-1λ^6-thiomorpholino)butan-2-yl)amino)-3-((trifluoromethyl)sulfonyl)phenyl)sulfonyl)benzamide] | 6.92 | 6.59 |  | 
14 | CC1(C)CCC(CN2CCN(c3ccc(C(=O)NS(=O)(=O)c4ccc(NC(CF)CN5CCP(C)(=O)CC5)c([N+](=O)[O-])c4)c(Oc4cnc5[nH]ccc5c4)c3)CC2)=C(c2ccc(Cl)cc2)C1 (stereo not shown) [Example 20, 2-((1H-pyrrolo[2,3-b]pyridin-5-yl)oxy)-4-(4-((4′-chloro-5,5-dimethyl-3,4,5,6-tetrahydro-[1,1′-biphenyl]-2-yl)methyl)piperazin-1-yl)-N-((4-((1-fluoro-3-(4-methyl-4-oxido-1,4-azaphosphinan-1-yl)propan-2-yl)amino)-3-nitrophenyl)sulfonyl)benzamide] | 6.48 | 6.41 |  | 
